Experimental data published in PubChem BioAssay (NCI).
“And” between values parts separate entries of the source, which are not always exact repeats. Equal entries are not always repeated.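 Each compound was tested at five concentrations against cells in 96-well plates for 48 hours. GI50 marks 50% less growth. TGI marks complete inhibition of growth.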

Tests used:
Assay in all cases: NCI tumour cell line growth inhibition, 48 h
[1] = system: A549 NSCLC
[2] = system: ACHN renal
[3] = system: HOP-62 NSCLC
[4] = system: HT29 colon
[5] = system: MALME-3M melanoma
[6] = system: SK-MEL-5 melanoma
[7] = system: UACC-62 melanoma
[8] = system: HS 578T breast
[9] = system: NCI/ADR-RES ovarian
[10] = system: PC-3 prostate

Compound | TGI [1] | TGI [2] | TGI [3] | TGI [4] | TGI [5] | TGI [6] | TGI [7] | TGI [8] [µM] | TGI [9] [µM] | TGI [10] [µM] | GI50 [1] [nM] | GI50 [2] | GI50 [3] [µM] | GI50 [8] [µM] | GI50 [4] | GI50 [5] [µM] | GI50 [10] [nM] | GI50 [6] | GI50 [9] [µM] | GI50 [7] [nM]
COCOCc1cc(OCc2ccccc2)c(OC)cc1Br | > 100 µM | > 100 µM | > 100 µM | > 100 µM | > 100 µM | > 100 µM | > 100 µM |  |  |  |  |  |  |  |  |  |  |  |  | 
O=C1Nc2ccccc2/C1=C/c1ccccc1 | 90.7 µM | > 100 µM | 38.5 µM | 48 µM |  | 26.1 µM | 30.7 µM | 91.8 | 70.6 | 31.1 |  |  |  |  |  |  |  |  |  | 
Oc1ccc2c3c1OC1C(=NN=C4CCC5(O)C6Cc7ccc(O)c8c7C5(CCN6CC5CC5)C4O8)CCC4(O)C(C2)N(CC2CC2)CCC314 (configuration not stated) | 42.3 µM | > 100 µM | > 65.7 µM | 32.8 µM | 34.5 µM | 34.8 µM | 41.2 µM |  |  |  |  |  |  |  |  |  |  |  |  | 
COc1ccc(/C(=N\O)c2cc(OC)c(OC)c(OC)c2)c(OC)c1N | > 100 µM | > 100 µM | > 100 µM | > 100 µM | > 100 µM | > 100 µM |  | > 100 |  | > 100 | 6260 | 7.68 µM | 4.26 | 5.51 | 3400 nM | 8.5 | 4000 | 5320 nM |  | 
N#CCCN(CCC#N)c1ccc(/C=N\c2nc(-c3ccccc3)cs2)cc1 | > 100 µM | > 100 µM | > 100 µM | > 100 µM | > 100 µM | > 100 µM | > 100 µM |  |  |  |  |  |  |  |  |  |  |  |  | 
CC1(C)N=C(N)N=C(N)N1c1ccc(OCC(=O)N2CCOCC2)c(Cl)c1 | > 100 µM | > 100 µM | > 100 µM | > 100 µM | > 100 µM | > 100 µM | > 100 µM |  | > 100 | > 100 | 271 | > 100 µM | 12.2 |  | 660 nM | 6.17 | 531 | 1360 nM | > 100 | 4740
C=CCC12CC(=O)C=C1CCC1(C2)OCCO1 (configuration not stated) | > 100 µM | > 100 µM | > 100 µM |  | > 100 µM | > 100 µM | > 100 µM |  |  |  |  |  |  |  |  |  |  |  |  | 
COc1ccc(NC(=O)COC(=O)c2cccc3c(=O)c4ccccc4[nH]c23)cc1 | 53.2 µM | 45.6 µM | 55.1 µM | 29.5 µM | 50.2 µM | 30.1 µM | 33.1 µM |  |  |  |  |  |  |  |  |  |  |  |  | 
O=C1CCCC(=O)C1=C(O)CCCCCCCCCCc1ccccc1 | > 100 µM | > 100 µM | > 100 µM | 79 µM |  | 49.5 µM | > 100 µM |  |  |  |  |  |  |  |  |  |  |  |  | 
O=C1Cc2ccccc2N1c1c(Cl)cccc1Cl | > 100 µM | > 100 µM | > 100 µM | > 100 µM | > 100 µM | > 100 µM | > 100 µM |  |  |  |  |  |  |  |  |  |  |  |  | 
CCC[CH2][Sn]1([CH2]CCC)[O]C(=O)c2cccc(OC)c2[O]1 | 3.37 µM | 0.753 µM | 3.75 µM | 2.09 µM | 0.633 µM | 2.11 µM | 1.18 µM |  |  |  | 1760 | 0.271 µM | 2.27 |  | 798 nM | 0.14 |  | 722 nM |  | 312
Cc1cc(Cl)ccc1NC(=O)CC1SC(N)=NC1=O (configuration not stated) | > 100 µM | > 100 µM | > 100 µM | > 100 µM | > 100 µM | > 100 µM | > 100 µM |  |  |  |  |  |  |  |  |  |  |  |  | 
COc1cc2c(cc1OCCCCCn1c(-c3ccco3)nc3ccccc31)N=C[C@@H]1CCCN1C2=O | > 100 µM |  | 1.1 µM | > 100 µM | < 0.01 µM | < 0.01 µM | < 0.0106 µM | < 0.0349 |  | > 100 | < 10 |  | < 0.01 | < 0.01 | < 10 nM | < 0.01 | < 10 | < 10 nM | 0.295 | < 10
Cn1cnc([N+](=O)[O-])c1SC1=NCCS1 | > 100 µM | > 100 µM | > 100 µM | > 100 µM | 70.2 µM | > 100 µM | > 100 µM |  |  |  |  |  |  |  |  |  |  |  |  | 
O=C1C2C(C(=O)N1c1ccccc1)C1(c3ccccc3)OC2(c2ccccc2)c2ccccc21 (configuration not stated) | > 100 µM | > 100 µM | > 100 µM | > 100 µM | > 100 µM | > 100 µM | > 100 µM |  |  |  |  |  |  |  |  |  |  |  |  | 
Cc1ccc(NC(=O)COC(=O)c2cccc3c(=O)c4ccccc4[nH]c23)cc1 | > 100 µM | > 100 µM | > 100 µM | > 100 µM | > 100 µM | > 100 µM | > 100 µM |  |  |  |  |  |  |  |  |  |  |  |  | 
CC1C=CC(C)C2(O)C(=O)NC(O)C12 (configuration not stated) | > 100 µM | > 100 µM | > 100 µM |  | > 100 µM | > 100 µM | > 100 µM |  |  |  |  |  |  |  |  |  |  |  |  | 
O=C(Nc1ccc([N+](=O)[O-])cc1C(=O)O)c1ccc([N+](=O)[O-])cc1 | > 100 µM | > 100 µM | > 100 µM | > 100 µM | > 100 µM | > 100 µM | > 100 µM |  |  |  |  |  |  |  |  |  |  |  |  | 
CCOC(=O)N[C@H]1CCc2cc(O)c(OC)c(OC)c2-c2ccc(SC)c(=O)cc21 | > 100 µM | > 100 µM | > 100 µM | 7.22 µM | > 100 µM | 0.0145 µM | > 100 µM |  |  |  |  |  |  |  |  |  |  |  |  | 
C/C=C(\CCC1NCCc2c1[nH]c1ccccc21)[Si](C)(C)C (configuration not stated) | 24.9 µM and 21 µM | 25 µM and 8.04 µM | 28.1 µM and 24.5 µM | 10.4 µM and 5.03 µM | 7.1 µM and 3.23 µM | 10.2 µM and 5.23 µM | 11.8 µM and 12.3 µM | 6.28 |  | 16.1 |  | 11.4 µM and 2.79 µM |  |  | 5460 nM and 2210 nM |  |  | 5630 nM and 2320 nM |  | 
C#C[C@@]1(O)CCCC2=CC(=O)C[C@]21C | > 100 µM | > 100 µM |  | > 100 µM | > 100 µM | > 100 µM |  |  |  |  |  |  |  |  |  |  |  |  |  | 
CO/N=C(\COc1ccc2c(c1)oc(=O)c1cc(OC)ccc12)c1cccc(OC)c1 | > 100 µM |  | > 100 µM | > 100 µM | > 100 µM | > 100 µM | > 100 µM | > 100 | > 100 | > 100 | > 100000 |  | > 100 | > 100 | > 100000 nM | > 100 | > 100000 | > 100000 nM | > 100 | > 100000
O[C@@H]1CCCN1Cc1cc2cc3c(cc2c2cc(OCc4ccccc4)ccc12)OCO3 | 14.8 µM | 22 µM | 18.9 µM | 5.09 µM | 5.44 µM | 3.5 µM | 3.68 µM | 9.07 | 21.7 |  | 3690 | 8.37 µM | 5.78 | 2.82 | 1940 nM | 2.37 |  | 1780 nM | 6.12 | 1970
